{"source": "ChEMBL document CHEMBL3271996", "about": "“Potential antitumor agents. Synthesis of bifunctional alpha-methylene-gamma-butyrolactones” (J Med Chem, 1976)", "key": {"L1210 [1]": {"tested_on": "L1210", "test": "Antitumor activity against mouse L1210 cells allografted in mouse at 100 to 400 mg/kg", "assay_type": "functional, organism-based"}, "9KB": {"tested_on": "9KB", "test": "(§1) Cytotoxicity against human 9KB cells", "assay_type": "functional"}, "[2]": {"test": "as §1", "assay_type": "functional", "details": "read-out: ED50 (the source's name)"}, "L1210 [3]": {"tested_on": "L1210", "test": "Antitumor activity against mouse L1210 cells allografted in mouse", "assay_type": "functional"}, "W256 [4]": {"tested_on": "W256", "test": "Antitumor activity against rat Walker 256 cells allografted in rat assessed as inhibition of tumor growth at 18.75 mg/kg", "assay_type": "functional", "details": "read-out: TGI"}, "Rattus norvegicus [5]": {"tested_on": "Rattus norvegicus", "test": "Toxicity in rat Walker 256 cells allografted rat at 37.5 mg/kg", "assay_type": "organism-based", "set-up": "dose 37.5 mg/kg", "details": "in vivo"}, "HeLa": {"tested_on": "HeLa", "test": "Cytotoxicity against human HeLa cells at 5 ug/ml", "assay_type": "functional, cell-based"}, "Rattus norvegicus [6]": {"tested_on": "Rattus norvegicus", "test": "Toxicity in rat Walker 256 cells allografted rat at 240 mg/kg", "assay_type": "organism-based", "set-up": "dose 240 mg/kg", "details": "in vivo"}, "W256 [7]": {"tested_on": "W256", "test": "Antitumor activity against rat Walker 256 cells allografted in rat assessed as inhibition of tumor growth at 120 mg/kg", "assay_type": "functional", "details": "read-out: TGI"}, "W256 [8]": {"tested_on": "W256", "test": "Antitumor activity against rat Walker 256 cells allografted in rat", "assay_type": "functional"}, "Rattus norvegicus [9]": {"species": "Rattus norvegicus", "test": "Toxicity in rat Walker 256 cells allografted rat", "assay_type": "organism-based"}}, "note": "Activity calls are given as the source filed them. The rule behind the calls is not given here."}
{"smiles": "O=C1OCC/C1=C\\OC(=O)c1ccccc1", "values": [{"measurement": "Activity", "setting": "L1210 [1]", "result": "inactive"}]}
{"smiles": "Cc1ccc(S(=O)(=O)O/C=C2\\CCOC2=O)cc1", "values": [{"measurement": "Activity", "setting": "L1210 [1]", "result": "inactive"}, {"measurement": "Activity", "setting": "9KB", "result": "inactive"}]}
{"smiles": "C=C1CC(CCCC2CC(=C)C(=O)O2)OC1=O", "note": "(stereo not given)", "values": [{"measurement": "EC50", "setting": "[2]", "result": 4, "unit": "µg/mL"}, {"measurement": "Activity", "setting": "L1210 [3]", "result": "inactive"}, {"measurement": "inhibition in vivo at 18.75 mg/kg", "setting": "W256 [4]", "result": 45, "unit": "%"}, {"measurement": "Activity", "setting": "Rattus norvegicus [5]", "result": "Toxic"}]}
{"smiles": "C=C1CCOC1=O", "note": "[TULIPALINE A]", "values": [{"measurement": "EC50", "setting": "[2]", "result": 16, "unit": "µg/mL"}]}
{"smiles": "O=C1OCC/C1=C\\OCCCCCO/C=C1\\CCOC1=O", "values": [{"measurement": "Activity", "setting": "L1210 [1]", "result": "inactive"}]}
{"smiles": "C=C1CC(CCCCCCC2CC(=C)C(=O)O2)OC1=O", "note": "(stereo not given)", "values": [{"measurement": "EC50", "setting": "[2]", "result": 7, "unit": "µg/mL"}, {"measurement": "Activity", "setting": "L1210 [3]", "result": "inactive"}]}
{"smiles": "CC1(O/C=C2\\CCOC2=O)C=CC(=O)O1", "note": "(stereo not given)", "values": [{"measurement": "Activity", "setting": "HeLa", "result": "Active"}, {"measurement": "Activity", "setting": "Rattus norvegicus [6]", "result": "Toxic"}, {"measurement": "inhibition in vivo at 120 mg/kg", "setting": "W256 [7]", "result": 27, "unit": "%"}]}
{"smiles": "O=C1OCC/C1=C\\OCCCCO/C=C1\\CCOC1=O", "values": [{"measurement": "Activity", "setting": "L1210 [1]", "result": "inactive"}, {"measurement": "Activity", "setting": "9KB", "result": "inactive"}]}
{"smiles": "C=C1CC(CCCCCC2CC(=C)C(=O)O2)OC1=O", "note": "(stereo not given)", "values": [{"measurement": "EC50", "setting": "[2]", "result": 15, "unit": "µg/mL"}, {"measurement": "Activity", "setting": "L1210 [3]", "result": "inactive"}]}
{"smiles": "O=C1OCC/C1=C\\OCCCO/C=C1\\CCOC1=O", "values": [{"measurement": "Activity", "setting": "L1210 [1]", "result": "inactive"}]}
{"smiles": "O=C(Cc1ccccc1)O/C=C1\\CCOC1=O", "values": [{"measurement": "Activity", "setting": "L1210 [1]", "result": "inactive"}, {"measurement": "Activity", "setting": "9KB", "result": "inactive"}]}
{"smiles": "O=C1OCC/C1=C\\OCCCCCCCCCCO/C=C1\\CCOC1=O", "values": [{"measurement": "Activity", "setting": "L1210 [1]", "result": "inactive"}]}
{"smiles": "C=C1CC(CCCCC2CC(=C)C(=O)O2)OC1=O", "note": "(stereo not given)", "values": [{"measurement": "EC50", "setting": "[2]", "result": 32, "unit": "µg/mL"}, {"measurement": "Activity", "setting": "L1210 [3]", "result": "inactive"}]}
{"smiles": "O=C1OCC/C1=C\\OCCO/C=C1\\CCOC1=O", "values": [{"measurement": "Activity", "setting": "L1210 [1]", "result": "inactive"}, {"measurement": "Activity", "setting": "9KB", "result": "inactive"}]}
{"smiles": "O=C1OCC/C1=C\\OCCCCCCO/C=C1\\CCOC1=O", "values": [{"measurement": "Activity", "setting": "L1210 [1]", "result": "inactive"}, {"measurement": "Activity", "setting": "9KB", "result": "inactive"}, {"measurement": "Activity", "setting": "W256 [8]", "result": "inactive"}, {"measurement": "Activity", "setting": "Rattus norvegicus [9]", "result": "Non-toxic"}]}
